Source: ChEMBL document CHEMBL4699511, “Cedrol, a Sesquiterpene Alcohol, Enhances the Anticancer Efficacy of Temozolomide in Attenuating Drug Resistance via Regulation of the DNA Damage Response and MGMT Expression” (J Nat Prod, 2020)
Active and inactive are the calls of the source. The calls are words filed in the database; no cut-off is given here.

Tests used:
DBTRG-05MG [1] = assay: Induction of cell cycle arrest in human DBTRG-05MG cells assessed as accumulation at S phase at 206 uM after 12 hrs by propidium iodide staining based flow cytometric analysis (reference value: 22.76 +/- 1.56%); format: functional
[2] = Effect on ERK expression in human DBTRG-05MG cells at 206 uM after 48 hrs by Western blot analysis (reference value: 1); format: functional
[3] = Effect on p38 expression in human DBTRG-05MG cells at 206 uM after 48 hrs by Western blot analysis (reference value: 1); format: functional
DBTRG-05MG [4] = assay: Induction of apoptosis in human DBTRG-05MG cells assessed as Bcl2 expression at 206 uM after 48 hrs by Western blot analysis (reference value: 1); format: functional
DBTRG-05MG [5] = assay: Induction of apoptosis in human DBTRG-05MG cells assessed as phosphorylated caspace-9 expression at 206 uM after 48 hrs by Western blot analysis (reference value: 1); format: functional
DBTRG-05MG [6] = assay: Induction of apoptosis in human DBTRG-05MG cells assessed as cleaved caspace-3 expression at 206 uM after 48 hrs by Western blot analysis (reference value: 1); format: functional
RG2 [7] = assay: Induction of apoptosis in rat RG2 cells assessed as Bax expression at 206 uM after 48 hrs by Western blot analysis (reference value: 1); format: functional
RG2 [8] = assay: Induction of apoptosis in rat RG2 cells assessed as cleaved caspace-9 expression at 206 uM after 48 hrs by Western blot analysis (reference value: 1); format: functional
DBTRG-05MG [9] = assay: Synergistic cytotoxicity against human DBTRG-05MG cells assessed as synergistic effect index at 134.9 uM after 48 hrs in presence of 103 uM TMZ by MTT assay; format: functional
DBTRG-05MG [10] = assay: Synergistic cytotoxicity against human DBTRG-05MG cells assessed as combination index at 112.4 uM after 48 hrs in presence of 206 uM TMZ by MTT assay; format: functional
DBTRG-05MG [11] = assay: Synergistic cytotoxicity against human DBTRG-05MG cells assessed as combination index at 134.9 uM after 48 hrs in presence of 309 uM TMZ by MTT assay; format: functional
RG2 [12] = assay: Synergistic cytotoxicity against rat RG2 cells assessed as synergistic effect index at 112.4 uM after 48 hrs in presence of 103 uM TMZ by MTT assay; format: functional
RG2 [13] = assay: Synergistic cytotoxicity against rat RG2 cells assessed as synergistic effect index at 134.9 uM after 48 hrs in presence of 412.1 uM TMZ by MTT assay; format: functional
RG2 [14] = assay: Synergistic cytotoxicity against rat RG2 cells assessed as combination index at 89.9 uM after 48 hrs in presence of 412.1 uM TMZ by MTT assay; format: functional
RG2 [15] = assay: Synergistic cytotoxicity against rat RG2 cells assessed as combination index at 112.4 uM after 48 hrs in presence of 103 uM TMZ by MTT assay; format: functional
RG2 [16] = assay: Synergistic cytotoxicity against rat RG2 cells assessed as combination index at 134.9 uM after 48 hrs in presence of 515.1 uM TMZ by MTT assay; format: functional
[17] = Synergistic cytotoxicity against rat CTX TNA2 cells assessed as synergistic effect index at 112.4 uM after 48 hrs in presence of 309 uM TMZ by MTT assay; format: cell-based; conditions: ctx tna2, 48 h
[18] = Synergistic cytotoxicity against rat CTX TNA2 cells assessed as combination index at 134.9 uM after 48 hrs in presence of 206 uM TMZ by MTT assay; format: cell-based; conditions: ctx tna2, 48 h
DBTRG-05MG [19] = assay: Induction of cell cycle arrest in human DBTRG-05MG cells assessed as accumulation at G0/G1 phase at 112.4 uM after 12 hrs by propidium iodide staining based flow cytometric analysis (reference value: 47.16 +/- 1.55%); format: functional
DBTRG-05MG [20] = assay: Induction of cell cycle arrest in human DBTRG-05MG cells assessed as accumulation at G2/M phase at 112.4 uM after 12 hrs in presence of TMZ by propidium iodide staining based flow cytometric analysis (reference value: 30.08 +/- 0.1%); format: functional
RG2 [21] = assay: Induction of cell cycle arrest in rat RG2 cells assessed as accumulation at S phase at 112.4 uM after 12 hrs by propidium iodide staining based flow cytometric analysis (reference value: 20.15 +/- 2.44%); format: functional
RG2 [22] = assay: Induction of cell cycle arrest in rat RG2 cells assessed as accumulation at S phase at 112.4 uM after 48 hrs by propidium iodide staining based flow cytometric analysis (reference value: 20.15 +/- 2.44%); format: functional
RG2 [23] = assay: Induction of cell cycle arrest in rat RG2 cells assessed as accumulation at S phase at 112.4 uM after 48 hrs in presence of TMZ by propidium iodide staining based flow cytometric analysis (reference value: 20.15 +/- 2.44%); format: functional
DBTRG-05MG [24] = assay: Induction of cell cycle arrest in human DBTRG-05MG cells assessed as CyclinD1 expression at 112.4 uM after 48 hrs in presence of TMZ by Western blot analysis (reference value: 1); format: functional
[25] = Effect on JNK expression in rat RG2 cells at 112.4uM after 48 hrs by Western blot analysis (reference value: 1); format: functional
DBTRG-05MG [26] = assay: Induction of apoptosis in human DBTRG-05MG cells assessed as increase in DNA fragmentation at 112.4 uM after 48 hrs in presence of TMZ by TUNEL assay; format: functional, cell-based
DBTRG-05MG [27] = assay: Induction of apoptosis in human DBTRG-05MG cells assessed as phosphorylated caspace-3 expression at 112.4 uM after 48 hrs by Western blot analysis (reference value: 1); format: functional
DBTRG-05MG [28] = assay: Induction of apoptosis in human DBTRG-05MG cells assessed as cleaved caspace-9 expression at 112.4 uM after 48 hrs in presence of TMZ by Western blot analysis (reference value: 1); format: functional
RG2 [29] = assay: Induction of apoptosis in rat RG2 cells assessed as Bax expression at 112.4 uM after 48 hrs in presence of TMZ by Western blot analysis (reference value: 1); format: functional
RG2 [30] = assay: Induction of DNA damage in rat RG2 cells assessed as Chk2 phosphorylation at Thr68 at 112.4 uM after 48 hrs in presence of TMZ by Western blot analysis (reference value: 1); format: functional
DBTRG-05MG [31] = assay: Induction of DNA damage in human DBTRG-05MG cells assessed as H2A.X phosphorylation at ser139 residues at 112.4 uM after 48 hrs in presence of TMZ by Western blot analysis (reference value: 1); format: functional
[32] = Effect of MGMT expression in human DBTRG-05MG cells at 112.4 uM after 48 hrs by Western blot analysis (reference value: 1); format: functional
DBTRG-05MG [33] = assay: Potentiation of TMZ-induced antitumor activity against human DBTRG-05MG cells xenografted in BALB/c nude mouse assessed as increase in survival time at 75 mg/kg, sc co-treated with TMZ for 18 days; format: functional, organism-based; conditions: time 18.0 day
DBTRG-05MG [34] = assay: Potentiation of TMZ-induced antitumor activity against human DBTRG-05MG cells xenografted in BALB/c nude mouse assessed as reduction in tumor growth at 75 mg/kg, sc co-treated with TMZ for 18 days by H and E staining-based bright field microscopic analysis; format: functional, organism-based; conditions: time 18.0 day

## Cn1nnc2c(C(N)=O)ncn2c1=O [TEMOZOLOMIDE]
DBTRG-05MG [1]
  Activity: 22.29%
[2]
  fold change (FC): 0.9
[3]
  fold change (FC): 0.9
DBTRG-05MG [4]
  fold change (FC): 1.3
DBTRG-05MG [5]
  fold change (FC): 0.3
DBTRG-05MG [6]
  fold change (FC): 3.3
RG2 [7]
  fold change (FC): 1.1
RG2 [8]
  fold change (FC): 1.7

## C[C@@H]1CC[C@H]2C(C)(C)[C@H]3C[C@@]12CC[C@@]3(C)O [CEDROL]
DBTRG-05MG [9]
  Activity_index: 0.86
DBTRG-05MG [10]
  CI: 0.5
DBTRG-05MG [11]
  CI: 0.61
RG2 [12]
  Activity_index: 0.83
RG2 [13]
  Activity_index: 0.9
RG2 [14]
  CI: 1.34
RG2 [15]
  CI: 0.8
RG2 [16]
  CI: 1.02
[17]
  Activity_index: 0.51
[18]
  CI: 1.13
DBTRG-05MG [19]
  Activity: 54.65%
DBTRG-05MG [20]
  Activity: 33.68%
RG2 [21]
  Activity: 16.92%
RG2 [22]
  Activity: 16.62%
RG2 [23]
  Activity: 20.29%
DBTRG-05MG [24]
  fold change (FC): 0.4
[25]
  fold change (FC): 0.8
DBTRG-05MG [26]
  Activity: Active
DBTRG-05MG [27]
  fold change (FC): 1.1
DBTRG-05MG [28]
  fold change (FC): 3.4
RG2 [29]
  fold change (FC): 2.21
RG2 [30]
  fold change (FC): 1.6
DBTRG-05MG [31]
  fold change (FC): 1.2
[32]
  fold change (FC): 0.8
DBTRG-05MG [33]
  Activity: Active
DBTRG-05MG [34]
  Activity: Active
